Our source for the IC50 values is PubChem BioAssay AID743118 (The Scripps Research Institute Molecular Screening Center, 2013).

Test [1] addresses Acyl-protein thioesterase 1 (Homo sapiens) (UniProt O75608). Nature of the test: APT1/APT2 inhibition IC50 by competitive ABPP – cell lysate, HeLa soluble proteome, fluorescence gel, in vitro, late-stage follow-up (AID 743118). The settings on record: gel-based ABPP FP-Rh fluorescence, LYPLA1.
Test [2] has as its target Acyl-protein thioesterase 2 (Homo sapiens) (UniProt O95372). Described as above. The settings on record: gel-based ABPP FP-Rh fluorescence, LYPLA2.

Molecules are shown by their SMILES.

Sequence of Acyl-protein thioesterase 2 (Homo sapiens) (O95372 whole entry, looked up): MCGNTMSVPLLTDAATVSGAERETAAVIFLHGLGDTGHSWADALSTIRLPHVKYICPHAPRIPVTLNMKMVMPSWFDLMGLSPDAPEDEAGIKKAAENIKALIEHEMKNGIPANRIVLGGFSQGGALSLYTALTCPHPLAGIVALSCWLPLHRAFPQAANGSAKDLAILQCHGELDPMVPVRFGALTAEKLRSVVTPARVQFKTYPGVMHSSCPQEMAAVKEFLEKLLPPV
Sequence of Acyl-protein thioesterase 1 (Homo sapiens) (O75608 whole entry, looked up): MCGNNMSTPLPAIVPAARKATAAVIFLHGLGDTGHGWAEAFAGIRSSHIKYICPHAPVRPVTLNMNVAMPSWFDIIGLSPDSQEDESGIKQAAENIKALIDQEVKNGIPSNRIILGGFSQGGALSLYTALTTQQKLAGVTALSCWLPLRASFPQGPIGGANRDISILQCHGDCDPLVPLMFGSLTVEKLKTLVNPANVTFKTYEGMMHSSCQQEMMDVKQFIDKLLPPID

As a reminder, the IC50 is the concentration at which inhibition is half-maximal. Take `CC(C)(C)CC(=O)N1CCN2C(=O)N(OC(=O)N3CCC(CCc4ccc(Cl)cc4)CC3)C(=O)C2C1` (stereo not given): the IC50 was 92 nM in test [1] and 217 nM in test [2].

Take `O=C(ON1C(=O)C2CN(C(=O)N3CCCCC3)CCN2C1=O)N1CCC(CCc2ccc(Cl)cc2)CC1` (stereo not given): the IC50 in test [1] is 154 nM; in test [2] it was 258 nM.

Turning to `O=C(ON1C(=O)C2CN(C(=O)c3ccc(Br)cc3)CCN2C1=O)N1CCC(CCc2ccc(Cl)cc2)CC1` (stereo not given), the half-maximal inhibitory concentration (IC50) in test [1] was 306 nM; in test [2], 726 nM.

With `O=C(ON1C(=O)C2CN(C(=O)N3CCOCC3)CCN2C1=O)N1CCC(CCc2ccc(Cl)cc2)CC1` (stereo not given), the IC50 was 122 nM in test [1] and 245 nM in test [2].

For `O=C(ON1C(=O)C2CN(C(=O)N3CCCC3)CCN2C1=O)N1CCC(CCc2ccc(Cl)cc2)CC1` (stereo not given), the 50% inhibitory concentration (IC50) in test [1] was 225 nM; in test [2] it was 384 nM.
